Assay results reported in patent publication US20240101535A1, “DIHYDROISOQUINOLINONE DERIVATIVE AND APPLICATION THEREOF” (ETERN BIOPHARMA (SHANGHAI) CO., LTD., priority 2020, published 2024).

Biological target: WDR5 protein (22-334aa) with MLL1 polypeptide (3672-3773aa) (Homo sapiens, UniProt P61964)
Assay: WDR5-MLL PPI inhibitory activity test (HTRF)
Type: binding
Conditions: His-tagged WDR5 and biotin-tagged MLL1 polypeptide
Source text: Test Example 1: WDR5-MLL PPI Inhibitory Activity Test
Effect of the compounds on WDR5 (WD Repeat Domain 5) and MLL1 (mixed-lineage leukemia 1) peptides at molecular level.
The effect of the compound on the interaction of WDR5 protein (22-334aa) with MLL1 polypeptide (3672-3773aa) was detected by HTRF (Homogeneous Time-Resolved Fluorescence) technology. When the N-terminal His-tagged WDR5 recognized by the Anti-6His-Eu cryptate donor interacts with the biotin-tagged MLL1 polypeptide recognized by the streptavidin-APC receptor, the donor and acceptor are pulled close enough to produce fluorescence resonance energy transfer (FRET). […] Therefore, the decrease in FRET signal can reflect the compound's inhibition on the interaction of WDR5 with MLL1 polypeptide.
The compound to be tested was diluted 3-fold with DMSO. […] Then the compound was diluted with reaction buffer (25 mM HEPES pH=7.5, 100 mM NaCl, 0.05% Tween 20) to control the final concentration of DMSO at 0.5%. In a 384-well plate, 1 μL of compound and 3 μL of 42 nM WDR5 protein were added, centrifuged at 1000 rpm for 1 min, incubated at room temperature for 60 min, followed by adding 3 μL of 333 nM MLL1 polypeptide with incubation at room temperature for 10 min, and followed by adding 3 μL of a mixed liquid of Anti-6His-Eu cryptate and streptavidin-APC with centrifugation at 1000 rpm for 1 mi and incubation at room temperature protected from light for 60 min, using a multifunction microplate reader (EnVision®2105) to read the signal. The following controls were set up per plate: control group (1 μL with 5% DMSO reaction buffer, 3 μL of 42 nM WDR5, 3 μL of MLL1 polypeptide, 3 μL of Anti-6His-Eu cryptate and streptavidin-APC). Blank group (1 μL reaction buffer with 5% DMSO, 3 μL reaction buffer, 3 μL MLL1 polypeptide, 3 μL Anti-6His-Eu cryptate and streptavidin-APC). The test data was calculated according to the signal ratio of two beams of fluorescence at different wavelengths: (665 nm signal/620 nm signal)*10000. […] The IC50 value was calculated using XLfit software.

Row | Structure (SMILES) | IC50
1 | CCOc1cc([C@H](C)N2CC3(CCC3)c3c(CN4CCNCC4)cc(Cn4ccnc4NC)cc3C2=O)ncc1C#N [Compound 49, (S)-4-ethoxy-6-(1-(7′-((2-(methylamino)-1H-imidazol-1-yl)methyl)-1′-one-5′-(piperazin-1-ylmethyl)-1′H-spiro[cyclobutan-1,4′-isoquinoline]-2′(3′H)-yl)ethyl)nicotinonitrile] | < 20 nM
2 | CCOc1cc([C@H](C)N2CC3(CC3)c3c(CN4CCN(CC(F)(F)F)CC4)cc(Cn4ccnc4NC)cc3C2=O)ncc1F [Compound 62] | < 20 nM
3 | CCOc1cc([C@H](C)N2CC3(CC3)c3c(CN4CCN(CCC(F)(F)F)CC4)cc(Cn4ccnc4NC)cc3C2=O)ncc1F [Compound 65] | < 20 nM
4 | CCOc1cc([C@H](C)N2CC3(CCC3)c3c(CN4CCC(N(C)C)CC4)cc(Cn4ccnc4NC)cc3C2=O)ncc1C#N [Compound 74] | < 20 nM
5 | CCOc1cc([C@H](C)N2CC3(CCC3)c3c(CN4CCC(NC)CC4)cc(Cn4ccnc4NC)cc3C2=O)ncc1C#N [Compound 75, (S)-4-ethoxy-6-(1-(7′-((2-(methylamino)-1H-imidazol-1-yl)methyl)-5′-((4-(methylamino)piperidin-1-yl)methyl)-1′-one-1′H-spiro[cyclobutan-1,4′-isoquinoline]-2′(3′H)-yl)ethyl)nicotinonitrile] | < 20 nM
6 | CCOc1cc([C@H](C)N2CC3(CCC3)c3c(CN4CCN(C(C)=O)CC4)cc(Cn4ccnc4NC)cc3C2=O)ncc1F [Compound 86, (S)-5′-((4-acetylpiperazin-1-yl)methyl)-2′-(1-(4-ethoxy-5-fluoropyridine-2-yl)ethyl)-7′-((2-(methylamino)-1H-imidazol-1-yl)methyl)-2′,3′-dihydro-1′H-spiro[cyclobutyl-1,4′-isoquinoline]-1′-one] | < 20 nM
7 | CCOc1cc(C(C)N2CC3(CCC3)c3c(CN4CC5(CNC5)C4)cc(Cn4ccnc4NC)cc3C2=O)ncc1C#N (stereo not drawn) [Compound 102] | 20 to 100 nM
8 | CCOc1cc(C(C)N2CC3(CCC3)c3c(CN(C)C)cc(Cn4ccc5ncccc54)cc3C2=O)ncc1C#N (stereo not drawn) [Compound 108, 6-(1-(7′-((1Hpyrrol[3,2-b]pyridine-1-yl)methyl)-5′-((dimethylamino)methyl)-1′-oxo-1′H-spiro[cyclobutan-1,4′-isoquinoline]-2′(3′H)-yl)ethyl)-4-ethoxynicotinonitrile] | 20 to 100 nM
9 | CCOc1cccc2c1CCC2N1CC2(CCC2)c2c(CN(C)C)cc(Cn3ccnc3NC)cc2C1=O (stereo not drawn) [Compound 113, 5′-((dimethylamino)methyl)-2′-(4-ethoxy-2,3-dihydro-1H-indene-1-yl)-7′-((2-(methylamino)-1H-imidazol-1-yl)methyl)-2′,3′-dihydro-1′H-spiro[cyclobutan-1,4′-isoquinoline]-1′-one] | < 20 nM
10 | CCOc1cc([C@H](C)N2CC3(CC3)c3c(CN(C)C)cc(Cn4cnc5c4CCCC5)cc3C2=O)ncc1F [Compound 114, (S)-5′-((dimethylamino)methyl)-2′-(1-(4-ethoxy-5-fluoropyridine-2-yl)ethyl)-7′-((4,5,6,7-tetrahydro-1H-benzo[d]imidazol-1-yl)methyl)-2′,3′-dihydro-1′H-spiro[cyclopropan-1,4′-isoquinoline]-1′-one] | < 20 nM
11 | CNc1nccn1Cc1cc(CN(C)C)c2c(c1)C(=O)N(C(C)c1ccc(O)c(O)c1)CC21CCC1 (stereo not drawn) [Compound 115, 2′-(1-(3,4-dihydroxylphenyl)ethyl)-5′-((dimethylamino)methyl)-7′-((2-(methylamino)-1H-imidazol-1-yl)methyl)-2′,3′-dihydro-1′H-spiro[cyclobutan-1,4′-isoquinoline]-1′-one] | 20 to 100 nM

Second part, the compound after the results:

Row | IC50 | Structure (SMILES)
12 | < 20 nM | CCOc1cc(C(C)N2CC3(CC3(F)F)c3c(CN(C)C)cc(Cn4ccnc4NC)cc3C2=O)ncc1F (single isomer, unassigned) [Compound 88]
13 | < 20 nM | CCOc1cc(C(C)N2CC3(CC3(F)F)c3c(CN(C)C)cc(Cn4ccnc4NC)cc3C2=O)ncc1F (single isomer, unassigned) [Compound 89]
14 | < 20 nM | CCOc1cc([C@H](C)N2C[C@@]3(CC3(F)F)c3c(CN(C)C)cc(Cn4ccnc4NC)cc3C2=O)ncc1F (stereo in doubt) [Compound 97, (R)-5′-((dimethylamino)methyl)-2′-((S)-1-(4-ethoxy-5-fluoropyridine-2-yl)ethyl)-2,2-difluoro-7′-((2-(methylamino)-1H imidazol-1-yl)methyl)-2′, 3′-dihydro-1′H-spiro[cyclopropan-1,4′-isoquinoline]-1′-one]
15 | < 20 nM | CCOc1cc([C@H](C)N2CC3(CC3)c3c(CN4CCCCC4)cc(Cn4ccnc4NC)cc3C2=O)ncc1F [Compound 7]
16 | < 20 nM | CCOc1cc([C@H](C)N2CC3(CC3)c3c(CN(C)CC#N)cc(Cn4ccnc4NC)cc3C2=O)ncc1F [Compound 43]
17 | < 20 nM | CCOc1cc([C@H](C)N2CC3(CC3)c3c(CN4CC(N(C)C)C4)cc(Cn4ccnc4NC)cc3C2=O)ncc1F [Compound 58, (S)-5′-((3-(dimethylamino)azetidinyl-1-yl)methyl)-2′-(1-(4-ethoxy-5-fluoropyridine-2-yl)ethyl)-7′-((2-(methylamino)-1H-imidazol-1-yl)methyl)-2′,3′-dihydro-1′H-spiro[cyclopropan-1,4′-isoquinoline]-1′-one]
18 | < 20 nM | CCOc1cc(CN2CC3(CC3)c3c(CN4CCN(C)CC4)cc(Cn4ccnc4NC)cc3C2=O)ncc1F [Compound 69, 2′-((4-ethoxy-5-fluoropyridine-2-yl)methyl)-7′-((2-(methylamino)-1H-imidazol-1-yl)methyl)-5′-((4-methylpiperazin-1-yl)methyl)-2′,3′-dihydro-1′H-spiro[cyclopropan-1,4′-isoquinoline]-1′-one]
19 | 20 to 100 nM | CCOc1cc(CN2CC3(CC3)c3c(CN(C)C)cc(Cn4ccnc4NC)cc3C2=O)ncc1F [Compound 76, 5′-((dimethylamino)methyl)-2′-((4-ethoxy-5-fluoropyridine-2-yl)methyl)-7′-((2-(methylamino)-1H-imidazol-1-yl)methyl)-2′,3′-dihydro-1′H-spiro[cyclopropan-1,4′-isoquinoline]-1′-one]
20 | < 20 nM | CCOc1cc([C@@H](C)N2C[C@@]3(CC3(F)F)c3c(CN(C)C)cc(Cn4ccnc4NC)cc3C2=O)ncc1F [Compound 90, (R)-5′-((dimethylamino)methyl)-2′-((R)-1-(4-ethoxy-5-fluoropyridine-2-yl)ethyl)-2,2-difluoro-7′-((2-(methylamino)-1H imidazol-1-yl)methyl)-2′, 3′-dihydro-1′H-spiro[cyclopropan-1,4′-isoquinoline]-1′-one]
21 | < 20 nM | CCOc1cc([C@H](C)N2CC3(CC3)c3c(C(=O)N(C)C)cc(Cn4ccnc4NC)cc3C2=O)ncc1F [Compound 110]
22 | < 20 nM | CCOc1cc(CN2CC3(CCC3)c3c(CN(C)C)cc(Cn4ccnc4C)cc3C2=O)ncc1C#N [Compound 117, 6-((5′-((dimethylamino)methyl)-7′-((2-methyl-1H-imidazol-1-yl)methyl)-1′-oxo-1′H-spiro[cyclobutan-1,4′-isoquinoline]-2′-3′H-yl)methyl)-4-ethoxynicotinonitrile]

System: MV4-11 cells
Assay: MV4-11 cell proliferation inhibition experiment (CellTiter-Glo)
Type: cell-based
Conditions: 6 days, read-out: cell proliferation inhibitory activity
Procedure: Test Example 2: MV4-11 Cell (ATCC: CRL-9591) Proliferation Inhibition Experiment
ATP in living cells was quantitatively detected by CellTiter-Glo (Promega-G7573) Luminescence Cell Viability Assay Kit to determine the effect of the compounds to be tested on cell proliferation. • Step 1: MV4-11 cells were seeded in 96-well plates (Greiner-655098) at a density of 1,500 cells per well with a volume of 140 μL per well; Cell culture medium components included RPM11640 (Gibco-A10491-01)+10% FBS (Gibco-10099-141C)+1% Penicillin-Streptomycin (5,000 U/mL, Gibco-15070-063). • Step 2: On the day of cell seeding, the cells were treated with the compound to be tested. The compound to be tested was diluted with a 3-fold gradient, and a total of 9 concentration gradients were set. DMSO (Sigma, D2650) with 0.5% final concentration or a DMSO solution containing the compound to be tested was added per well with 2 or 3 replicate wells at each concentration point. The plates were incubated at 37° C. in a 5% CO2 incubator (Thermo Scientific Steri-Cycle 371) for 6 days. • Step 3: The cell viability in the control and treatment groups was detected with CellTiter-Glo Luminescent Cell Viability Assay Kit. 50 μL of CellTiter-Glo was added per well, mixed well, and incubated for 15 min at room temperature protected from light. According to the kit instructions, the chemiluminescence signal was read using a multifunctional microplate reader (EnVision, PerkinElmer).
The inhibition percentage (%) of the compound at each concentration point was calculated by the following formula:
Inhibition Percentage (%)=(1−signal value of the group treated with the compound/signal value of the group treated with DMSO)*100.
The value of cell proliferation semi-inhibitory concentration IC50 was calculated using GraphPad Prism software, and the results are shown in Table 2.

Row | IC50 | Structure (SMILES)
23 | < 50 nM | CCOc1cc(C(C)N2CC3(CC3(F)F)c3c(CN(C)C)cc(Cn4ccnc4NC)cc3C2=O)ncc1F (single isomer, unassigned) [Compound 89]

Same assay, conditions: Homo sapiens, 144 h, 6 days, read-out: cell proliferation inhibitory activity

Row | IC50 | Structure (SMILES)
24 | < 50 nM | CCOc1cc(C(C)N2CC3(CC3(F)F)c3c(CN(C)C)cc(Cn4ccnc4NC)cc3C2=O)ncc1F (single isomer, unassigned) [Compound 88]
